The values that follow come from ChEMBL document CHEMBL1148851, “Chemoenzymatic synthesis and in vitro studies on the hydrolysis of antimicrobial monoglycosyl diglycerides by pancreatic lipase” (2007).

SMILES strings stand for the structures. ≈ marks a conversion by molar mass, not a printed value. A value given as a limit tells only on which side of the number the result lay.

As a reminder, the MIC is the least concentration at which growth counts as inhibited.

One assay deals with Mycobacterium tuberculosis. The experiment in a line: Antibacterial activity against Mycobacterium tuberculosis H190 by dilution method. It is filed as functional.
Conditions: not given
`CCCCC/C=C\C/C=C\CCCCCCCC(=O)OC(COC(=O)CCCCCCCCC)CO[C@@H]1O[C@H](CO)[C@H](O)[C@H](O)[C@H]1O` (stereo partly drawn) had an MIC of over 128 µg/mL.

Turning to `CCCCCCCC/C=C\CCCCCCCC(=O)OC(COC(=O)CCCCCCCCC)CO[C@@H]1O[C@H](CO)[C@H](O)[C@H](O)[C@H]1O` (stereo partly drawn), the MIC is over 128 µg/mL.

The test system of a further assay is Candida albicans. The assay is described as follows: Antifungal activity against Candida albicans by dilution method.
Conditions: not given
The format is functional.
With `CCCCC/C=C\C/C=C\CCCCCCCC(=O)OC(COC(=O)CCCCCCCCC)CO[C@@H]1O[C@H](CO)[C@H](O)[C@H](O)[C@H]1O` (stereo partly drawn), the minimum inhibitory concentration (MIC) is over 128 µg/mL.

For `CCCCCCCC/C=C\CCCCCCCC(=O)OC(COC(=O)CCCCCCCCC)CO[C@@H]1O[C@H](CO)[C@H](O)[C@H](O)[C@H]1O` (stereo partly drawn), the MIC is over 128 µg/mL.

The test system of another assay is Staphylococcus aureus. The assay is described as follows: Antibacterial activity against Staphylococcus aureus SA87 isolate. It is filed as functional. Conditions: Staphylococcus aureus; read-out: MIC.
As for `CCCCC/C=C\C/C=C\CCCCCCCC(=O)OC(COC(=O)CCCCCCCCC)CO[C@@H]1O[C@H](CO)[C@H](O)[C@H](O)[C@H]1O` (stereo partly drawn), the MIC was found to be 64 µg/mL (≈ 95.4 µM).

For the compound `CCCCCCCC/C=C\CCCCCCCC(=O)OC(COC(=O)CCCCCCCCC)CO[C@@H]1O[C@H](CO)[C@H](O)[C@H](O)[C@H]1O` (stereo partly drawn), the MIC was over 128 µg/mL.

The test system of a further assay is Kluyveromyces marxianus. The experiment in a line: Antifungal activity against Candida pseudotropicalis by dilution method. It is filed as functional.
Conditions: not given
With `CCCCC/C=C\C/C=C\CCCCCCCC(=O)OC(COC(=O)CCCCCCCCC)CO[C@@H]1O[C@H](CO)[C@H](O)[C@H](O)[C@H]1O` (stereo partly drawn), the minimum inhibitory concentration (MIC) is over 128 µg/mL.

The compound `CCCCCCCC/C=C\CCCCCCCC(=O)OC(COC(=O)CCCCCCCCC)CO[C@@H]1O[C@H](CO)[C@H](O)[C@H](O)[C@H]1O` (stereo partly drawn) yielded an MIC of over 128 µg/mL.

Another assay has as its system Staphylococcus aureus. The assay is described as follows: Antibacterial activity against Staphylococcus aureus ATCC 105487. It is filed as functional.
Conditions: not given
`CCCCC/C=C\C/C=C\CCCCCCCC(=O)OC(COC(=O)CCCCCCCCC)CO[C@@H]1O[C@H](CO)[C@H](O)[C@H](O)[C@H]1O` (stereo partly drawn) displayed an MIC of 64 µg/mL (≈ 95.4 µM).

`CCCCCCCC/C=C\CCCCCCCC(=O)OC(COC(=O)CCCCCCCCC)CO[C@@H]1O[C@H](CO)[C@H](O)[C@H](O)[C@H]1O` (stereo partly drawn) had an MIC of over 128 µg/mL.

A further assay deals with Staphylococcus aureus. The assay is described as follows: Antibacterial activity against Staphylococcus aureus ATCC 25923.
Conditions: not given
It is filed as functional.
Turning to `CCCCC/C=C\C/C=C\CCCCCCCC(=O)OC(COC(=O)CCCCCCCCC)CO[C@@H]1O[C@H](CO)[C@H](O)[C@H](O)[C@H]1O` (stereo partly drawn), the MIC was over 128 µg/mL.

For `CCCCCCCC/C=C\CCCCCCCC(=O)OC(COC(=O)CCCCCCCCC)CO[C@@H]1O[C@H](CO)[C@H](O)[C@H](O)[C@H]1O` (stereo partly drawn), 128 µg/mL (≈ 190 µM) was the least that counted as inhibitory (MIC).

The test system of a further assay is Mycobacterium tuberculosis. The experiment in a line: Antibacterial activity against Mycobacterium tuberculosis H37Rv by dilution method. The format is functional. Conditions: Mycobacterium tuberculosis, H37Rv; read-out: MIC.
For `CCCCC/C=C\C/C=C\CCCCCCCC(=O)OC(COC(=O)CCCCCCCCC)CO[C@@H]1O[C@H](CO)[C@H](O)[C@H](O)[C@H]1O` (stereo partly drawn), the MIC was over 128 µg/mL.

As to `CCCCCCCC/C=C\CCCCCCCC(=O)OC(COC(=O)CCCCCCCCC)CO[C@@H]1O[C@H](CO)[C@H](O)[C@H](O)[C@H]1O` (stereo partly drawn), the MIC is over 128 µg/mL.

Another assay relates to Enterococcus faecalis. The experiment in a line: Antibacterial activity against Enterococcus faecalis ATCC 29212. It is filed as functional.
Conditions: not given
The compound `CCCCC/C=C\C/C=C\CCCCCCCC(=O)OC(COC(=O)CCCCCCCCC)CO[C@@H]1O[C@H](CO)[C@H](O)[C@H](O)[C@H]1O` (stereo partly drawn) showed an MIC of 128 µg/mL (≈ 191 µM).

As to `CCCCCCCC/C=C\CCCCCCCC(=O)OC(COC(=O)CCCCCCCCC)CO[C@@H]1O[C@H](CO)[C@H](O)[C@H](O)[C@H]1O` (stereo partly drawn), the minimal inhibitory concentration (MIC) was over 128 µg/mL.

The test system of the next assay is Pseudomonas aeruginosa. The experiment in a line: Antibacterial activity against Pseudomonas aeruginosa ATCC 27753. The format is functional.
Conditions: not given
As to `CCCCC/C=C\C/C=C\CCCCCCCC(=O)OC(COC(=O)CCCCCCCCC)CO[C@@H]1O[C@H](CO)[C@H](O)[C@H](O)[C@H]1O` (stereo partly drawn), the MIC is over 128 µg/mL.

In the case of `CCCCCCCC/C=C\CCCCCCCC(=O)OC(COC(=O)CCCCCCCCC)CO[C@@H]1O[C@H](CO)[C@H](O)[C@H](O)[C@H]1O` (stereo partly drawn), the minimum inhibitory concentration (MIC) was over 128 µg/mL.

The test system of a further assay is Bacillus subtilis. The assay is described as follows: Antibacterial activity against Bacillus subtilis ATCC 6633. The format is functional. Conditions: Bacillus subtilis, ATCC 6633; read-out: MIC.
As for `CCCCC/C=C\C/C=C\CCCCCCCC(=O)OC(COC(=O)CCCCCCCCC)CO[C@@H]1O[C@H](CO)[C@H](O)[C@H](O)[C@H]1O` (stereo partly drawn), the MIC came to 128 µg/mL (≈ 191 µM).

With `CCCCCCCC/C=C\CCCCCCCC(=O)OC(COC(=O)CCCCCCCCC)CO[C@@H]1O[C@H](CO)[C@H](O)[C@H](O)[C@H]1O` (stereo partly drawn), the MIC came out at 32 µg/mL (≈ 47.6 µM).

The next assay deals with Staphylococcus aureus. The experiment in a line: Antibacterial activity against Staphylococcus aureus SA52 isolate.
Conditions: not given
The format is functional.
With `CCCCC/C=C\C/C=C\CCCCCCCC(=O)OC(COC(=O)CCCCCCCCC)CO[C@@H]1O[C@H](CO)[C@H](O)[C@H](O)[C@H]1O` (stereo partly drawn), the MIC was over 128 µg/mL.

In turn, `CCCCCCCC/C=C\CCCCCCCC(=O)OC(COC(=O)CCCCCCCCC)CO[C@@H]1O[C@H](CO)[C@H](O)[C@H](O)[C@H]1O` (stereo partly drawn) returned an MIC of over 128 µg/mL.

For a further assay, the system named is Mycobacterium tuberculosis. The experiment in a line: Antibacterial activity against Mycobacterium tuberculosis H160 by dilution method. Conditions: Mycobacterium tuberculosis, H160; read-out: MIC. The format is functional.
With `CCCCC/C=C\C/C=C\CCCCCCCC(=O)OC(COC(=O)CCCCCCCCC)CO[C@@H]1O[C@H](CO)[C@H](O)[C@H](O)[C@H]1O` (stereo partly drawn), the MIC is over 128 µg/mL.

In the case of `CCCCCCCC/C=C\CCCCCCCC(=O)OC(COC(=O)CCCCCCCCC)CO[C@@H]1O[C@H](CO)[C@H](O)[C@H](O)[C@H]1O` (stereo partly drawn), the MIC was over 128 µg/mL.

The subject of a further assay is Escherichia coli. The experiment in a line: Antibacterial activity against Escherichia coli ATCC 25922. It is filed as functional.
Conditions: not given
As to `CCCCC/C=C\C/C=C\CCCCCCCC(=O)OC(COC(=O)CCCCCCCCC)CO[C@@H]1O[C@H](CO)[C@H](O)[C@H](O)[C@H]1O` (stereo partly drawn), the MIC is over 128 µg/mL.

For the compound `CCCCCCCC/C=C\CCCCCCCC(=O)OC(COC(=O)CCCCCCCCC)CO[C@@H]1O[C@H](CO)[C@H](O)[C@H](O)[C@H]1O` (stereo partly drawn), the MIC is over 128 µg/mL.

Another assay deals with Staphylococcus aureus. The experiment in a line: Antibacterial activity against Staphylococcus aureus SA85 isolate. It is filed as functional.
Conditions: not given
`CCCCC/C=C\C/C=C\CCCCCCCC(=O)OC(COC(=O)CCCCCCCCC)CO[C@@H]1O[C@H](CO)[C@H](O)[C@H](O)[C@H]1O` (stereo partly drawn) gave an MIC of 64 µg/mL (≈ 95.4 µM).

The compound `CCCCCCCC/C=C\CCCCCCCC(=O)OC(COC(=O)CCCCCCCCC)CO[C@@H]1O[C@H](CO)[C@H](O)[C@H](O)[C@H]1O` (stereo partly drawn) yielded a minimal inhibitory concentration (MIC) of 128 µg/mL (≈ 190 µM).
